# Activity calls are given as the source filed them.
# Columns and labels:
# [1] = general mammalian cell viability loss – inhibitor set, cherry-pick, set 2, cytotoxicity control for miR-122 modulator project, dose response (AID 720697); assay type: functional, cell-based
# [2] = target: Nonstructural protein 1 (Influenza A virus, UniProt Q194T2); assay type: functional, Influenza A virus (A/California/07/2009(H1N1))
# [3] = target: Matrix metalloproteinase-14 (Homo sapiens, UniProt P50281); test: Dose Response confirmation of uHTS hits for a small molecule inhibitors of MT1-MMP activation in a fluorescence assay set 1.; assay type: functional
# [4] = HGIII-sPLA2 enzyme inhibition potency – biochemical, QFRET, IC50, dose response (AID 743457);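 further: green fluorescence rise as the enzyme cleaves BODIPY PC-A2 in liposomes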
# [5] = target: T1, Small ubiquitin-related modifier 1 (Homo sapiens, UniProt P63165); test: SUMO1 protein-protein binding blockers, potency – biochemical, FRET, dose response (AID 624383); assay type: functional; details: read-out: IC50_Mean
# T1 sequence (P63165 whole entry): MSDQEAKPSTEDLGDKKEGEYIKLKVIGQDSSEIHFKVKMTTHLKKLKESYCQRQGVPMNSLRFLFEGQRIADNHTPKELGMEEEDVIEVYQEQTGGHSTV
# [6] = target: T1, Small ubiquitin-related modifier 1; test: SUMO1 protein interaction blockers, potency – biochemical, fluorescence polarization, uHTS hits, dose response (AID 624382); assay type: functional; details: read-out: IC50_Mean
# [7] = tested on: Vero; test: viability loss in Vero cells – cell-based, plate reader, cherry-pick samples, cytotoxicity control, dose response (AID 687020); assay type: functional; details: Chlorocebus sabaeus
# [8] = tested on: A549; test: viability loss in A549 cells – cell-based, plate reader, cherry-pick samples, cytotoxicity control, dose response (AID 687028); assay type: functional; details: Homo sapiens
# [9] = target: Fructose-bisphosphate aldolase (Mycobacterium tuberculosis, UniProt P9WQA3); test: Fluorescence-based biochemical high throughput dose response assay for inhibitors of the fructose-bisphosphate aldolase (FBA) of M. tuberculosis.; assay type: functional
# Sequence of Fructose-bisphosphate aldolase (P9WQA3 whole entry): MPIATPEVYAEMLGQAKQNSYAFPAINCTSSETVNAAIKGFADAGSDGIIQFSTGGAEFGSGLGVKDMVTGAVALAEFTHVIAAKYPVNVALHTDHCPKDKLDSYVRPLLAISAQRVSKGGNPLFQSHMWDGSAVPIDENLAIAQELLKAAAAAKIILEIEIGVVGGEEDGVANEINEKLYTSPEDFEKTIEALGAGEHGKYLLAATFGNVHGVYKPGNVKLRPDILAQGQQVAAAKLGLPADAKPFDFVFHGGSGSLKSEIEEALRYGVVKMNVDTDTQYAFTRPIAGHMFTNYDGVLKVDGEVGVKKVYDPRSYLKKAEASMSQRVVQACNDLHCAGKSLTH
# [10] = target: T2, Rac GTPase-activating protein 1 (Homo sapiens, UniProt Q9H0H5); test: blockers of MgcRacGAP-driven Rac1 GTP hydrolysis – biochemical, ADP Hunter fluorescence, primary and confirmatory, confirmation (AID 624330); assay type: functional
# T2 sequence (Q9H0H5 whole entry): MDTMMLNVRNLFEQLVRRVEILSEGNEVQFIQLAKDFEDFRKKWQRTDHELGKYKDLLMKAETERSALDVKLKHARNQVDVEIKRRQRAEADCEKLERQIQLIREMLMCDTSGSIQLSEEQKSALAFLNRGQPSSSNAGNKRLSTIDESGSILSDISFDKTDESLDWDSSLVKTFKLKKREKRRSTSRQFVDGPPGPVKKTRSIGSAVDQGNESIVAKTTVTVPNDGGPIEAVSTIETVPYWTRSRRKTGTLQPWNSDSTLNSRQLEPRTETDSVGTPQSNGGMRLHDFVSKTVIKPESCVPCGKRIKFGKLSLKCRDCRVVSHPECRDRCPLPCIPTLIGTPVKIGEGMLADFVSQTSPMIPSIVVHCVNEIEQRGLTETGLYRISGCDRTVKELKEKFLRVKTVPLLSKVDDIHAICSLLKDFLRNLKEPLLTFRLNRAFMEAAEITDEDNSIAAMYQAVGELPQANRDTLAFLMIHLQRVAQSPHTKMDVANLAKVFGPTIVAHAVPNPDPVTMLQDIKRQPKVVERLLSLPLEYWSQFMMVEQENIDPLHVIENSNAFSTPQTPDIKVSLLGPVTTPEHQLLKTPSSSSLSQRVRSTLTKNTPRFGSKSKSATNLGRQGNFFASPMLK
# [11] = target: T3, Sentrin-specific protease 1 (Homo sapiens, UniProt Q9P0U3); test: SENP1 catalytic domain blockers, concentration series – biochemical, kinetic FRET, dose response (AID 651697); assay type: functional; details: read-out: IC50_Mean
# T3 sequence (Q9P0U3 whole entry, the tested form may be a part): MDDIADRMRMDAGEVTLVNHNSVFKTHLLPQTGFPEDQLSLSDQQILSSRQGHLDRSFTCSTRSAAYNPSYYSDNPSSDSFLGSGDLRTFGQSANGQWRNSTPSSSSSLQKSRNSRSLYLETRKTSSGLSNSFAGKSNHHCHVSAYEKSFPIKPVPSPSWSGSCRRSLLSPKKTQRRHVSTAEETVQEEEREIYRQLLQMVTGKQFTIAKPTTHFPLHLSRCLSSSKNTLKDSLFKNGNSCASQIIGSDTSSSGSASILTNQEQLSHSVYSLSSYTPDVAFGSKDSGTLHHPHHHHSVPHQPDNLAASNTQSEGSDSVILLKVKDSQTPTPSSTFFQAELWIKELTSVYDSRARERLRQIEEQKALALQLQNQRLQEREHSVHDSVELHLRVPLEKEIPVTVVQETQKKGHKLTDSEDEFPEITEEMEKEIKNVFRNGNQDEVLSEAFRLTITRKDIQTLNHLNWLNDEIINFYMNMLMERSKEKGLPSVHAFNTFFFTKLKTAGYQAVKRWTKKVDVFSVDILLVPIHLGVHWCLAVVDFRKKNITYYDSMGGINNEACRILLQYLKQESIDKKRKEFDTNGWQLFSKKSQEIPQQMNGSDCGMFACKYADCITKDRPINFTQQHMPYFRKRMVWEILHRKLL
# [12] = target: T3, Sentrin-specific protease 1; test: Dose response confirmation of small molecule inhibitors of the catalytic domain of the SUMO protease, SENP1 in a FRET assay.; assay type: functional; details: read-out: IC50_Mean
# Sequence of Nonstructural protein 1 (Q194T2 whole entry): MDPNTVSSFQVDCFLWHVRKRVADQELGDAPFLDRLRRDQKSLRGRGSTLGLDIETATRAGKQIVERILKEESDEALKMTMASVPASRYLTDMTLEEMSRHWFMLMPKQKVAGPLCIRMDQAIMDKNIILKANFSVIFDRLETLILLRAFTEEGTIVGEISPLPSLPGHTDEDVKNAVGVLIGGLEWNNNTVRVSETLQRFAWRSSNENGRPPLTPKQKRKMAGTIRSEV
smiles,measurement,setting,value
CCN(CC)CCOc1cccc(C(C)C)c1,AC50,[1],6.91 µM (active)
CC1(C)CCCN(C(=O)c2ccc3c(c2NCCO)C(=O)c2ccccc2C3=O)C1,IC50,[2],15.2 µM (active)
same,IC50,[3],17.2 µM (active)
same,IC50,[4],> 122 µM (inactive)
CCCC(C)C(=O)Nc1nc(C)c(-c2csc(Nc3cc(Cl)ccc3C)n2)s1 (configuration not stated),IC50,[5],10.2 µM (active)
same,IC50,[6],> 66.6 µM (inactive)
O=C(OCc1cn([C@H]2CN(C(=O)C3CCCCC3)[C@@H](c3ccccc3)C[C@@H]2O)nn1)c1ccccc1,AC50,[7],20.2 µM (active)
same,AC50,[8],16.1 µM (active)
CN1CCN(C(=O)COc2ccc(-c3nc4ccccc4s3)cc2)CC1,IC50,[9],3.57 µM (active)
C/C(=N\NC(=O)c1ccccc1F)c1ccc2c(c1)Nc1ccccc1S2,IC50,[10],54.7 µM (active)
same,IC50,[11],11.2 µM (active)
same,IC50,[12],10.5 µM (active)

# Reference: ChEMBL document CHEMBL1201862, “PubChem BioAssay data set” (2004)
